From patent publication US8226963B2, “Feed-through lignin-pesticide compositions” (Wellmark International, priority 2005, dated 2012)
Where “and” joins values, the source holds several entries; their conditions need not be identical. Identical values can stand only once.

Experiments:
Assay type in all cases: in vivo
[1] = Barium (BaSO4) passing into the manure of chickens; settings: for Amount of Barium, % found in manure: 0.093% in feed
Description: This example illustrates a determination of the maximum concentration of any active agent that will pass into the manure of chickens.
Briefly, chicken feed was formulated using a pulverized cattle bolus which contained barium in the form of BaSO4.

[2] = Methoprene found in manure of cats fed treated cat food; settings: for Calculated Methoprene (ppm) in manure: cats Q, S, T
Protocol: This example illustrates a study in cats comparing an inventive formulation containing lignin-methoprene complexes with a formulation containing free methoprene.
Three cats were fed the formulations for a week and their manure was tested every 24 hours.

[3] = Methoprene found in manure of horses fed treated feed as top dressing; settings: Average of Day 0-Day 10
Protocol: This example illustrates a study in horses comparing an inventive formulation containing a lignin-methoprene complex with a formulation containing free methoprene.
Four horses were fed the formulations for eleven days and their manure was tested every 24 hours.

[4] = Methoprene found in manure of cows fed treated feed as top dressing; settings: Average of Day 1-Day 10
Protocol: This example illustrates a study in cattle comparing an inventive formulation containing a lignin-methoprene complex with a formulation containing free methoprene.
Four cows were fed the formulations for eleven days and their manure was tested every 24 hours.

[5] = Enteric Matrix/Coating of Methoprene Feed Through Study in chickens; settings: Feed Rate 23.8 ppm
Description: This example illustrates a study of methoprene versus enteric coated methoprene. The results below indicate that there is no difference in % recovery between technical grade methoprene and enteric coated methoprene or matrix treated methoprene.

[6] = horse Bettor Lad, AI fed 8.94 ppm

## O=S(=O)([O-])[O-].[Ba+2] [Barium, BaSO4]
[1]; 4 hr.
  % of initial BaSO4 found in manure: 1.78%
[1]; 4 hr. after feeding
  Amount of Barium, % found in manure: 0.00165%
[1]; 24 hr.
  % of initial BaSO4 found in manure: 48.90%
[1]; 24 hr. after feeding
  Amount of Barium, % found in manure: 0.0455%
[1]; 48 hr.
  % of initial BaSO4 found in manure: 59.90%
[1]; 48 hr. after feeding
  Amount of Barium, % found in manure: 0.0557%
[1]; 72 hr.
  % of initial BaSO4 found in manure: 50.60%
[1]; 72 hr. after feeding
  Amount of Barium, % found in manure: 0.0471%

## COC(C)(C)CCCC(C)C/C=C/C(C)=C/C(=O)OC(C)C (stereo not drawn) [free methoprene, methoprene]
[2]; cat food @ 36.2 ppm, 24 hr
  Day 1 Avg. methoprene in manure: 0.63 ppm
  Day 1 Avg. methoprene recovered in manure (%): (1.7%)
[2]; cat food @ 36.2 ppm, 48 hr
  Day 2 Avg. methoprene in manure: 2.2 ppm
  Day 2 Avg. methoprene recovered in manure (%): (6.1%)
[2]; cat food @ 36.2 ppm, 72 hr
  Day 3 Avg. methoprene in manure: 1.8 ppm
  Day 3 Avg. methoprene recovered in manure (%): (5.0%)
[2]; cat food @ 36.2 ppm, 96 hr
  Day 4 Avg. methoprene in manure: 1.9 ppm
  Day 4 Avg. methoprene recovered in manure (%): (5.2%)
[2]; cat food @ 36.2 ppm, Day 0 (0 hr)
  Calculated Methoprene (ppm) in manure: 0 ppm
[2]; cat food @ 36.2 ppm, Day 1 (24 hr), listed as Free Methoprene Lot # 491-166
  Calculated Methoprene (ppm) in manure: 0.6 ppm and 0.7 ppm
[2]; cat food @ 36.2 ppm, Day 2 (48 hr), listed as Free Methoprene Lot # 491-166
  Calculated Methoprene (ppm) in manure: 2.4 ppm and 2.5 ppm and 1.6 ppm
[2]; cat food @ 36.2 ppm, Day 3 (72 hr), listed as Free Methoprene Lot # 491-166
  Calculated Methoprene (ppm) in manure: 2.0 ppm and 1.5 ppm
[2]; range of daily averages Day 1-Day 4
  amount of methoprene recovered from the manure of cats: 1.7-6.1%
[3]; [6]
  AI manure ppm: 1.29 ppm
  Percent pass through: 14.4%
[3]; horse Dancer, AI fed 8.61 ppm
  AI manure ppm: 1.30 ppm
  Percent pass through: 15.1%
[3]; horses, two per group
  Avg. % pass through by Group: 14.75%
[4]; cow 10 R/W, AI fed 8.94 ppm
  AI manure ppm: 0.16 ppm
  Percent pass through: 1.8%
[4]; cow 16 Black, AI fed 12.58 ppm
  AI manure ppm: 0.35 ppm
  Percent pass through: 2.8%
[4]; cows, two per group
  Avg. % pass through by Group: 2.3%
[5]
  % Recovery: 12.22%
[5]; feed Egg Buster
  Manure Rate ppm (methoprene): 2.91 ppm
